Measurements as given in patent publication US10058550B2, “Methods of treating heart failure” (priority 2015, dated 2018).

Target: human APJ receptor (Homo sapiens (Human), UniProt P35414)
Assay: biochemical
Assay type: biochemical
Details: read-out: Activity hAPJ SPA EC50 IP
Summary of the method: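 Agonist-stimulated [35S]GTPγS (0.2 nM) binding was read by SPA after 90 min at room temperature. Buffer: 20 mM HEPES pH 7.5 with 5 mM MgCl2, 200 mM NaCl, 3 μM GDP, 0.1% BSA; membranes were from a stable human APJ CHO line. EC50 values are averages of independent runs, fitted by non-linear regression.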

Chain of human APJ receptor (P35414 whole entry): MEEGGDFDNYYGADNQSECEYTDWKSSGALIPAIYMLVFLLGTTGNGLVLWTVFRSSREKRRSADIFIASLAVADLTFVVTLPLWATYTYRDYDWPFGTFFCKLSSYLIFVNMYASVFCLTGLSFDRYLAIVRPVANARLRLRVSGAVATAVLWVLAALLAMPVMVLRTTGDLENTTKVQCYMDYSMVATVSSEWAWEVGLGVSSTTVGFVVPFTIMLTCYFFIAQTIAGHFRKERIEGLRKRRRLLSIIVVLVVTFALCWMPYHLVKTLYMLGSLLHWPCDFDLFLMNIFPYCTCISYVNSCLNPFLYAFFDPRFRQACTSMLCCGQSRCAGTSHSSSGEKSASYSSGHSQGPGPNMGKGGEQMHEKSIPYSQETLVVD

| Structure (SMILES) | EC50 |
| --- | --- |
| COc1cccc(OC)c1-n1c(NS(=O)(=O)[C@H](C)[C@@H](OC)c2ncc(Cl)cn2)nnc1-c1cncc(C)c1 (single isomer, unassigned) [Example 558.0] | 30 nM |
| COc1cccc(OC)c1-n1c(NS(=O)(=O)[C@H](C)[C@@H](OC)c2ncc(Cl)cn2)nnc1-c1cncc(C)c1 (single isomer, unassigned) [Example 559.0] | 120 nM |
| COc1cccc(OC)c1-n1c(NS(=O)(=O)[C@H](C)[C@@H](OC)c2ncc(Cl)cn2)nnc1-c1cncc(C)c1 (single isomer, unassigned) [Example 560.0] | 0.88 nM |
| CCO[C@@H](c1cnc(C)cn1)[C@@H](C)S(=O)(=O)Nc1nnc(-c2cncc(C)c2)n1-c1c(OC)cccc1OC (single isomer, unassigned) [Example 565.0, (1S,2R)—N-(4-(2,6-dimethoxyphenyl)-5-(5-methyl-3-pyridinyl)-4H-1,2,4-triazol-3-yl)-1-ethoxy-1-(5-methyl-2-pyrazinyl)-2-propanesulfonamide or (1R,2S)—N-(4-(2,6-dimethoxyphenyl)-5-(5-methyl-3-pyridinyl)-4H-1,2,4-triazol-3-yl)-1-ethoxy-1-(5-methyl-2-pyrazinyl)-2-propanesulfonamide] | 100 nM |
| CCO[C@@H](c1cnc(C)cn1)[C@@H](C)S(=O)(=O)Nc1nnc(-c2cncc(C)c2)n1-c1c(OC)cccc1OC (single isomer, unassigned) [Example 566.0, (1S,2R)—N-(4-(2,6-dimethoxyphenyl)-5-(5-methyl-3-pyridinyl)-4H-1,2,4-triazol-3-yl)-1-ethoxy-1-(5-methyl-2-pyrazinyl)-2-propanesulfonamide or (1R,2S)—N-(4-(2,6-dimethoxyphenyl)-5-(5-methyl-3-pyridinyl)-4H-1,2,4-triazol-3-yl)-1-ethoxy-1-(5-methyl-2-pyrazinyl)-2-propanesulfonamide] | 62 nM |
| COc1cccc(OC)c1-n1c(NS(=O)(=O)[C@H](C)[C@@H](O)c2cnc(C)cn2)nnc1-c1cncc(C)c1 (single isomer, unassigned) [Example 568.0, (1S,2R)—N-(4-(2,6-dimethoxyphenyl)-5-(5-methyl-3-pyridinyl)-4H-1,2,4-triazol-3-yl)-1-hydroxy-1-(5-methyl-2-pyrazinyl)-2-propanesulfonamide or (1R,2S)—N-(4-(2,6-dimethoxyphenyl)-5-(5-methyl-3-pyridinyl)-4H-1,2,4-triazol-3-yl)-1-hydroxy-1-(5-methyl-2-pyrazinyl)-2-propanesulfonamide] | 7.1 nM |
| COc1cccc(OC)c1-n1c(NS(=O)(=O)[C@H](C)[C@@H](O)c2cnc(C)cn2)nnc1-c1cncc(C)c1 (single isomer, unassigned) [Example 569.0, (1S,2R)—N-(4-(2,6-dimethoxyphenyl)-5-(5-methyl-3-pyridinyl)-4H-1,2,4-triazol-3-yl)-1-hydroxy-1-(5-methyl-2-pyrazinyl)-2-propanesulfonamide or (1R,2S)—N-(4-(2,6-dimethoxyphenyl)-5-(5-methyl-3-pyridinyl)-4H-1,2,4-triazol-3-yl)-1-hydroxy-1-(5-methyl-2-pyrazinyl)-2-propanesulfonamide] | 0.26 nM |
| COc1cccc(-c2nnc(NS(=O)(=O)[C@@H](C)[C@H](O)c3cnc(C)cn3)n2-c2c(OC)cccc2OC)n1 (single isomer, unassigned) [Example 577.0, (1R,2S)—N-(4-(2,6-dimethoxyphenyl)-5-(6-methoxy-2-pyridinyl)-4H-1,2,4-triazol-3-yl)-1-hydroxy-1-(5-methyl-2-pyrazinyl)-2-propanesulfonamide or (1S,2R)—N-(4-(2,6-dimethoxyphenyl)-5-(6-methoxy-2-pyridinyl)-4H-1,2,4-triazol-3-yl)-1-hydroxy-1-(5-methyl-2-pyrazinyl)-2-propanesulfonamide] | 0.24 nM |
| COc1cccc(-c2nnc(NS(=O)(=O)[C@@H](C)[C@H](O)c3cnc(C)cn3)n2-c2c(OC)cccc2OC)n1 (single isomer, unassigned) [Example 578.0, (1R,2S)—N-(4-(2,6-dimethoxyphenyl)-5-(6-methoxy-2-pyridinyl)-4H-1,2,4-triazol-3-yl)-1-hydroxy-1-(5-methyl-2-pyrazinyl)-2-propanesulfonamide or (1S,2R)—N-(4-(2,6-dimethoxyphenyl)-5-(6-methoxy-2-pyridinyl)-4H-1,2,4-triazol-3-yl)-1-hydroxy-1-(5-methyl-2-pyrazinyl)-2-propanesulfonamide] | 2.7 nM |
| COc1cccc(-c2nnc(NS(=O)(=O)[C@@H](C)[C@@H](O)c3ncc(C)cn3)n2-c2c(OC)cccc2OC)n1 (single isomer, unassigned) [Example 583.0] | 0.19 nM |
| CCO[C@@H](c1ncc(Cl)cn1)[C@H](C)S(=O)(=O)Nc1nnc(-c2cncc(C)c2)n1-c1c(OC)cccc1OC (single isomer, unassigned) [Example 609.0] | 9.4 nM |
| CCO[C@@H](c1ncc(Cl)cn1)[C@H](C)S(=O)(=O)Nc1nnc(-c2cncc(C)c2)n1-c1c(OC)cccc1OC (single isomer, unassigned) [Example 611.0] | 0.19 nM |
| CCO[C@@H](c1ncc(Cl)cn1)[C@H](C)S(=O)(=O)Nc1nnc(-c2cncc(C)c2)n1-c1c(OC)cccc1OC (single isomer, unassigned) [Example 612.0] | 13 nM |
| COc1cccc(OC)c1-n1c(NS(=O)(=O)[C@@H](C)[C@H](OC)c2ccc(F)cc2C#N)nnc1-c1cncc(C)c1 (single isomer, unassigned) [Example 623.0] | 130 nM |
| COc1cccc(OC)c1-n1c(NS(=O)(=O)[C@@H](C)[C@@H](OC(C)C)c2ncc(C)cn2)nnc1-c1cccnc1 (single isomer, unassigned) [Example 627.0, (1R,2R)-N-(4-(2,6-dimethoxyphenyl)-5-(pyridin-3-yl)-4H-1,2,4-triazol-3-yl)-1-isopropoxy-1-(5-methylpyrimidin-2-yl)propane-2-sulfonamide or (1S,2S)-N-(4-(2,6-dimethoxyphenyl)-5-(pyridin-3-yl)-4H-1,2,4-triazol-3-yl)-1-isopropoxy-1-(5-methylpyrimidin-2-yl)propane-2-sulfonamide] | 1.1 nM |
| COc1cccc(OC)c1-n1c(NS(=O)(=O)[C@@H](C)[C@@H](C)n2cc(C)cn2)nnc1-c1cncc(C)c1 (single isomer, unassigned) [Example 650.0] | 39 nM |
| COc1cccc(OC)c1-n1c(NS(=O)(=O)[C@@H](C)[C@@H](C)n2cc(C)cn2)nnc1-c1cncc(C)c1 (single isomer, unassigned) [Example 651.0] | 85 nM |
| COc1cccc(OC)c1-n1c(NS(=O)(=O)[C@@H](C)[C@@H](C)n2cc(C)cn2)nnc1-c1cncc(C)c1 (single isomer, unassigned) [Example 652.0] | 0.43 nM |
| CCOc1cccc(OC)c1-n1c(NS(=O)(=O)[C@@H](C)[C@H](OC)c2ncc(C)cn2)nnc1-c1cccc(OC)n1 (single isomer, unassigned) [Example 664.0, (1R,2S,P)—N-(4-(2-ethoxy-6-methoxyphenyl)-5-(6-methoxy-2-pyridinyl)-4H-1,2,4-triazol-3-yl)-1-methoxy-1-(5-methyl-2-pyrimidinyl)-2-propanesulfonamide or (1R,2S,M)-N-(4-(2-ethoxy-6-methoxyphenyl)-5-(6-methoxy-2-pyridinyl)-4H-1,2,4-triazol-3-yl)-1-methoxy-1-(5-methyl-2-pyrimidinyl)-2-propanesulfonamide] | 0.31 nM |
